Data on one compound can be found in publication PMC8458504, “Targeting the actin nucleation promoting factor WASp provides a therapeutic approach for hematopoietic malignancies” (Nature Communications, 2021).

For this experiment, the target named is T1, YFP-WASp wt (Wiskott–Aldrich Syndrome protein) (Homo sapiens, UniProt P42768).
T1 construct: gene WAS; full-length wild type, YFP-tagged, transiently expressed in HEK 293T (endogenous WIP present); diluted whole-cell lysate, not purified
T1 sequence (P42768 2-502): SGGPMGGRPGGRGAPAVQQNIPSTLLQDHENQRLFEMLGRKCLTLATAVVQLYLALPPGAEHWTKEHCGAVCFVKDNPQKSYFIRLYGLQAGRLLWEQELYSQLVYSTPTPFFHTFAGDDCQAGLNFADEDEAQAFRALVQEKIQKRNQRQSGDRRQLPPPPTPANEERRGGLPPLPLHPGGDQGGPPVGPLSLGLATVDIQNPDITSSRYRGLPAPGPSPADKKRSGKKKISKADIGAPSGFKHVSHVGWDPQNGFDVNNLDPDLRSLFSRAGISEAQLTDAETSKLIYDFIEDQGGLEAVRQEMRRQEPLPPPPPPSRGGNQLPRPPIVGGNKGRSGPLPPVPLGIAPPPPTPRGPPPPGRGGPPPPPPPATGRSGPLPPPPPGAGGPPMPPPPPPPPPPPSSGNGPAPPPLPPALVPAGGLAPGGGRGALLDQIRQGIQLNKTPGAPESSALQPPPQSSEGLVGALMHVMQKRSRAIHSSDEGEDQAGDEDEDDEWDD
Nature of the experiment: microscale thermophoresis in diluted HEK […] lysate. The experiment is classed as binding. A general note: Microscale thermophoresis detects binding through changes in fluorescence in a small temperature gradient.

The term Kd denotes the free concentration of one partner at which half of the binding sites on the other are occupied at equilibrium, for simple one-to-one binding. As for `COc1ccc(CN2C(=O)N(CC(C)C)C3(CCN(C4Cc5ccccc5C4)CC3)C2=O)cc1` [SMC #13, 8-(2,3-dihydro-1H-inden-2-yl)-1-isobutyl-3-(4-methoxybenzyl)-1,3,8-triazaspiro[4.5]decane-2,4-dione], binding was put at a Kd of 30.8 ± 13.6 nM.
